Earlier results as cited in US10967066B2, “Stapled acid-sensitive endosome disrupting alginates” (University of Pittsburgh—Of the Commonwealth System of …, priority 2015, dated 2021).

Key:
tumors = conditions: mice

For `CC(C)c1cc(C(=O)[O-])c(O)c(C(C)C)c1.CC(C)c1cc(C(=O)[O-])c(O)c(C(C)C)c1.[Cu+2]` [Cu(II)DIPS, copper(II) (3,5-diisopropylsalicylate)2], the “hydrogen peroxide accumulation and cell death in cancer cells” value (cancer cells) is listed as “induce hydrogen peroxide accumulation due to the conversion of radical oxygen into hydrogen peroxide, with this accumulation of hydrogen peroxide leading to cell death in cancer cells” and the clearing tumors (tumors) is listed as “effective in clearing tumors in mice”.
